Test results reported in patent publication US6984639B2, “Heterocyclic ketone and thioester compounds and uses” (GPI NIL Holdings, Inc., priority 1996, dated 2006).
pEC50: −log10 of the molar value. Where two headings read alike, the source gives them in different places.

Assays:
[1] = system: MPTP lesioning of dopaminergic neurons in mice; test: MPTP Model of Parkinson's Disease; format: in vivo; conditions: test compound 4 mg/kg s.c.; MPTP 30 mg/kg i.p. for 5 days; CD1 mice; striatum, 18 days following MPTP
Experimental: MPTP lesioning of dopaminergic neurons in mice was used as an animal model of Parkinson's Disease. Four week old male CD1 white mice were dosed i.p. with 30 mg/kg of MPTP for 5 days. Test compounds (4 mg/kg), or vehicle, were administered s.c. along with the MPTP for 5 days, as well as for an additional 5 days following cessation of MPTP treatment. At 18 days following MPTP treatment, the animals were sacrificed and the striata were dissected and homogenized. Immunostaining was performed on saggital and coronal brain sections using anti-tyrosine hydroxylase […] to quantitate survival and recovery of dopaminergic neurons.
The results of these experiments are presented in TABLE IV under the column “% TH recovery”.

[2] = system: cultured chick sensory neurons from dorsal root ganglia; test: Chick Dorsal Root Ganglion Cultures and Neurite Outgrowth; format: cell-based; conditions: for pEC50: neurite outgrowth, 48 hours after drug treatment, from dose-response curves, read-out: ED50 (the source's name)
Experimental: Dorsal root ganglia were dissected from chick embryos of ten day gestation. Whole ganglion explants were cultured on thin layer Matrigel-coated 12 well plates with Liebovitz L15 plus high glucose media supplemented with 2 mM glutamine and 10% fetal calf serum, and also containing 10 μm cytosine β-D arabinofuranoside (Ara C) at 37° C. in an environment containing 5% CO2. Twenty-four hours later, the DRGs were treated with various concentrations of nerve growth factor, immunophilin ligands or combinations of NFG plus drugs. Forty-eight hours after drug treatment, the ganglia were visualized under phase contrast or Hoffman Modulation contrast with a Zeiss Axiovert inverted microscope. Photomicrographs of the explants were made, and neurite outgrowth was quantitated. Neurites longer than the ORG diameter were counted as positive, with total number of neurites quantitated per each experimental condition. Three to four DRGs are cultured per well, and each treatment was performed in duplicate.
Dose-response curves were generated from which ED50 values were obtained.

Row | Compound | % TH recovery [1] [%] | pEC50 [2] | further results
1 | 2,2-Diphenylethyl (2S)-1-(3,3-dimethyl-2-oxopentanoyl)-2-pyrrolidinecarbothioate [Compound 44] | 28 |  | 
2 | 2-Phenyl-1-ethyl 1-(2-phenyl-1,2-dioxoethyl)-2-piperidinecarbothioate [Compound 14] | 48 | 9.05 | 
3 | 2-Phenyl-1-ethyl 1-(3,3-dimethyl-1,2-dioxopentyl)-2-piperidinecarbothioate [Compound 10] | 54 | 9.10 | neurite outgrowth in sensory neurons (photomicrograph) ([2]; 10 pM): promoting neurite outgrowth; neurite outgrowth in sensory neurons (photomicrograph) ([2]; 1 nM): promoting neurite outgrowth; neurite outgrowth in sensory neurons (photomicrograph) ([2]; 100 nM): promoting neurite outgrowth
4 | 2-Phenyl-1-ethyl (2S)-1-(2-cyclohexyl-1,2-dioxoethyl)-2-pyrrolidinecarbothioate [Compound 12] |  | 10.60 | 
5 | 2-Phenyl-1-ethyl (2S)-1-(3,3-dimethyl-1,2-dioxopentyl)-2-pyrrolidinecarbothioate [Compound 9] | 61 | 9.30 | 
6 | 3,3-Diphenyl-1-propyl (2S)-1-(3,3-dimethyl-1,2-dioxopentyl)-2-pyrrolidinecarbothioate [Compound 32] | 56 |  | 
7 | 3,3-Diphenylpropyl 1-(3,3-dimethyl-2-oxopentanoyl)-2-piperidinecarbothioate [Compound 46] | 62 |  | 
8 | 3-(1-Naphthyl)-1-propyl 1-(3,3-dimethyl-1,2-dioxopentyl)piperidine-2-carbothioate [Compound 40] | 25 |  | 
9 | 3-(1-Naphthyl)-1-propyl (2S)-1-(3,3-dimethyl-2-oxopentanoyl)-2-pyrrolidinecarbothioate [Compound 43] | 50 |  | 
10 | 3-(para-Methoxyphenyl)-1-propyl (2S)-1-(3,3-dimethyl-1,2-dioxopentyl)-2-pyrrolidinecarbothioate [Compound 34] | 37.32 | 10.96 | 
11 | 3-Phenyl-1-propyl (2S)-1-(2-cyclohexyl-1,2-dioxoethyl)-2-pyrrolidinecarbothioate [Compound 28] | 52 |  | 
12 | 4-Phenyl-1-butyl (2S)-1-(3,3-dimethyl-1,2-dioxopentyl)-2-pyrrolidinecarbothioate [Compound 30] | 48 | 9.05 | 
13 | CCC(C)(C)C(=O)C(=O)N1CCC[C@H]1C(=O)CCCCc1ccccc1 [Compound 1, (2S)-3,3-dimethyl-1-[2-(5-phenylpentanoyl)pyrrolidinyl]pentane-1,2-dione] | 23 | 9.40 | neurite outgrowth in sensory neurons (photomicrograph) ([2]; 10 pM): promoting neurite outgrowth; neurite outgrowth in sensory neurons (photomicrograph) ([2]; 1 nM): promoting neurite outgrowth; neurite outgrowth in sensory neurons (photomicrograph) ([2]; 1 μM): promoting neurite outgrowth
14 | CCC(C)(C)C(=O)C(=O)N1CCCC1C(=O)SCc1csc2ccccc12 (stereo not shown) [Compound 11] | 53 | 9.44 | 
15 | O=C(C(=O)N1CCC[C@H]1C(=O)CCCCc1ccccc1)C1CCCCC1 [Compound 62, (2S)-2-(1-Oxo-5-phenyl)pentyl-1-(2-Cyclohexyl-1,2-dioxoethyl)pyrrolidine] | 38 |  | pEC50 ([2]; Gallus gallus, Neuron): 8.30
16 | CC(C)(C)C(=O)C(=O)N1CCCCC1C(=O)C(CCc1ccccc1)CCc1ccccc1 (stereo not shown) [Compound 65] | 23 |  | 
17 | CCC(C)(C)C(=O)C(=O)N1CCC[C@H]1C(=O)CCCC(c1ccc(F)cc1)c1ccc(F)cc1 [Compound 66, (2S)-2-[5,5-di(4-Fluorophenyl)pentanoyl]-1-(3,3 dimethyl-1,2-pentanedione)pyrrolidine] | 25 |  | 
